Assay results from US20210038587A1, “METHODS AND COMPOSITIONS FOR TREATING NON-ERK MAPK PATHWAY INHIBITOR-RESISTANT CANCERS” (BIOMED VALLEY DISCOVERIES, INC., priority 2013, published 2021).

Legend:
HT29 = assay: Reverse Phase Protein Analysis (RPPA); assay type: cell-based; settings: % change from DMSO (matched cell line)
Experimental: (§1) Control wells were treated with DMSO at 0.1% (v/v) for 6 hours prior to cell lysate generation. Samples were then analyzed using reverse-phase protein microarray technology (Theranostics Health).
(§2) Cell lines with common alterations in BRAF and RAS were assayed: BRAF^V600E mutant lines A375, Colo205, and HT29; KRAS^G12C-mutant cell line MIAPACa-2; KRAS^G13D-mutant cell line HCT116; and AN3Ca with atypical HRAS^F82L mutation. Changes in protein levels are shown as a percentage change from dimethyl sulfoxide (DMSO)-treated parental control (FIG. 32A and Table 23).

AN3Ca = assay: Reverse Phase Protein Analysis (RPPA); assay type: cell-based; settings: % change from DMSO (matched cell line)
Experimental: as §1, §2

[1] = tested on: A375, MIAPaCa-2, HCT116, Colo205, HT-29, and AN3Ca cells; assay: Reverse Phase Protein Analysis (RPPA), all six cell lines; assay type: cell-based; settings: 10 μM, 6 hours
Experimental: as §1, §2

Colo205 = assay: Reverse Phase Protein Analysis (RPPA); assay type: cell-based, human; settings: % change from DMSO (matched cell line)
MIAPaCa-2 = assay: Reverse Phase Protein Analysis (RPPA); assay type: cell-based; settings: MIAPaca2; % change from DMSO (matched cell line)

Cn1nccc1Nc1nccc(-c2ccn([C@H](CO)c3ccc(Cl)c(F)c3)c(=O)c2)n1 [GDC-0994]
Avg (4ebp1 T70) (HT29): 1.95% | Avg (Akt S473) (HT29): −10.5% | Avg (Akt) (HT29): −10.01% | Avg (Bad S136) (HT29): 2% | Avg (Bad S155) (HT29): −6.7% | Avg (Bak) (HT29): 3.56% | Avg (Bax) (HT29): 1.1% | Avg (Bcl 2) (HT29): 18.16% | Avg (Bcl2 S70) (HT29): 10.59% | Avg (Bcl 2 T56) (HT29): 1.61% | Avg (Bim) (HT29): 7.74% | Avg (CREB S133) (HT29): 9.54% | Avg (Caspase 3 CL D175) (HT29): −3.44% | Avg (Caspase 7 Cl D198) (HT29): −0.88% | Avg (Chk1) (HT29): 5.68% | Avg (Chk1 S345) (HT29): 6.88% | Avg (Cyclin D1) (HT29): −35.69% | Avg (ERK 1 2) (HT29): 4.66% | Avg (ERK 1 2 T202 Y204) (HT29): 268.99% | Avg (MAK1 S360) (HT29): −0.04% | Avg (Mcl1) (HT29): 3.71% | Avg (Raptor S792) (HT29): −1.75% | Avg (Raptor) (HT29): −6.85% | Avg (Rictor) (HT29): −10.62% | Avg (Stat1) (HT29): 2.58% | Avg (Stat3) (HT29): −3.69% | Avg (bad S112) (HT29): −12.98% | Avg (c Fos) (HT29): −12.92% | Avg (c Myc) (HT29): 7.56% | Avg (mTOR S2448) (HT29): −11.44% | Avg (mTOR S2481) (HT29): 3.23% | Avg (mTOR) (HT29): 10.45% | Avg (p70 S6 Kinase) (HT29): −2.83% | Avg (p90 RSK S380) (HT29): −30.59% | Avg(S6 Ribo Prot S235 236) (HT29): −41.45% | Avg(S6 Ribo Prot S240 244) (HT29): −21.74% | Avg(Tuberin TSC2 Y1571) (HT29): 11.86% | Avg(p70 S6 Kinase S371 S394) (HT29): −25.73% | Avg(p70 S6 Kinase T389 T412) (HT29): −20.86% | Avg (4ebp1 T70) (AN3Ca): 11.28% | Avg (Akt S473) (AN3Ca): 82.37% | Avg (Akt) (AN3Ca): −26.04% | Avg (Bad S136) (AN3Ca): 0.71% | Avg (Bad S155) (AN3Ca): 17.31% | Avg (Bak) (AN3Ca): 7.33% | Avg (Bax) (AN3Ca): 23.83% | Avg (Bcl 2) (AN3Ca): 7.8% | Avg (Bcl2 S70) (AN3Ca): −0.65% | Avg (Bcl 2 T56) (AN3Ca): 1.23% | Avg (Bim) (AN3Ca): −11.63% | Avg (CREB S133) (AN3Ca): 5.03% | Avg (Caspase 3 CL D175) (AN3Ca): 1.55% | Avg (Caspase 7 Cl D198) (AN3Ca): −15.56% | Avg (Chk1) (AN3Ca): 9.43% | Avg (Chk1 S345) (AN3Ca): 15.46% | Avg (Cyclin D1) (AN3Ca): 0.34% | Avg (ERK 1 2) (AN3Ca): −2.87% | Avg (ERK 1 2 T202 Y204) (AN3Ca): 645.51% | Avg (MAK1 S360) (AN3Ca): 6.84% | Avg (Mcl1) (AN3Ca): −4.16% | Avg (Raptor S792) (AN3Ca): 4.85% | Avg (Raptor) (AN3Ca): −8.05% | Avg (Rictor) (AN3Ca): −9.21% | Avg (Stat1) (AN3Ca): 9.15% | Avg (Stat3) (AN3Ca): −13.05% | Avg (bad S112) (AN3Ca): 2.53% | Avg (c Fos) (AN3Ca): −0.63% | Avg (c Myc) (AN3Ca): 3.99% | Avg (mTOR S2448) (AN3Ca): −2.96% | Avg (mTOR S2481) (AN3Ca): 25.42% | Avg (mTOR) (AN3Ca): −2.85% | Avg (p70 S6 Kinase) (AN3Ca): −3.67% | Avg (p90 RSK S380) (AN3Ca): −29.44% | Avg(S6 Ribo Prot S235 236) (AN3Ca): −30.74% | Avg(S6 Ribo Prot S240 244) (AN3Ca): −23.47% | Avg(Tuberin TSC2 Y1571) (AN3Ca): 25.18% | Avg(p70 S6 Kinase S371 S394) (AN3Ca): 29.09% | Avg(p70 S6 Kinase T389 T412) (AN3Ca): 26.01% | pERK1/2 (ERK1/2-T202, -Y204) [1]: markedly increased pERK1/2 | survival marker pBAD [1]: only modest inhibition of pBAD | Avg (4ebp1 T70) (Colo205): −36.69% | Avg (Akt S473) (Colo205): 4.45% | Avg (Akt) (Colo205): −11.83% | Avg (Bad S136) (Colo205): 4% | Avg (Bad S155) (Colo205): −9.11% | Avg (Bak) (Colo205): 6.58% | Avg (Bax) (Colo205): 8.2% | Avg (Bcl 2) (Colo205): 17.95% | Avg (Bcl2 S70) (Colo205): −9% | Avg (Bcl 2 T56) (Colo205): −4.6% | Avg (Bim) (Colo205): 20.59% | Avg (CREB S133) (Colo205): −11.85% | Avg (Caspase 3 CL D175) (Colo205): 23.06% | Avg (Caspase 7 Cl D198) (Colo205): 1.37% | Avg (Chk1) (Colo205): 5.06% | Avg (Chk1 S345) (Colo205): 6.08% | Avg (Cyclin D1) (Colo205): −28.02% | Avg (ERK 1 2) (Colo205): −3.33% | Avg (ERK 1 2 T202 Y204) (Colo205): 20.01% | Avg (MAK1 S360) (Colo205): 0.82% | Avg (Mcl1) (Colo205): 2.5% | Avg (Raptor S792) (Colo205): −9.04% | Avg (Raptor) (Colo205): −5.48% | Avg (Rictor) (Colo205): −5.04% | Avg (Stat1) (Colo205): 7.26% | Avg (Stat3) (Colo205): −0.86% | Avg (bad S112) (Colo205): −6.12% | Avg (c Fos) (Colo205): −21.33% | Avg (c Myc) (Colo205): −6.22% | Avg (mTOR S2448) (Colo205): −7.36% | Avg (mTOR S2481) (Colo205): 0.96% | Avg (mTOR) (Colo205): 3.39% | Avg (p70 S6 Kinase) (Colo205): 5.83% | Avg (p90 RSK S380) (Colo205): −57.5% | Avg(S6 Ribo Prot S235 236) (Colo205): −91.19% | Avg(S6 Ribo Prot S240 244) (Colo205): −91.59% | Avg(Tuberin TSC2 Y1571) (Colo205): 0.66% | Avg(p70 S6 Kinase S371 S394) (Colo205): −13.02% | Avg(p70 S6 Kinase T389 T412) (Colo205): −32.2% | Avg (4ebp1 T70) (MIAPaCa-2): −34.01% | Avg (Akt S473) (MIAPaCa-2): 2.24% | Avg (Akt) (MIAPaCa-2): 4.33% | Avg (Bad S136) (MIAPaCa-2): 2.25% | Avg (Bad S155) (MIAPaCa-2): 8.18% | Avg (Bak) (MIAPaCa-2): −8.11% | Avg (Bax) (MIAPaCa-2): 3.48% | Avg (Bcl 2) (MIAPaCa-2): −7.8% | Avg (Bcl2 S70) (MIAPaCa-2): −6.78% | Avg (Bcl 2 T56) (MIAPaCa-2): −2.12% | Avg (Bim) (MIAPaCa-2): 5.07% | Avg (CREB S133) (MIAPaCa-2): −21.37% | Avg (Caspase 3 CL D175) (MIAPaCa-2): 10.47% | Avg (Caspase 7 Cl D198) (MIAPaCa-2): −4.92% | Avg (Chk1) (MIAPaCa-2): 6.56% | Avg (Chk1 S345) (MIAPaCa-2): 32.96% | Avg (Cyclin D1) (MIAPaCa-2): −31.92% | Avg (ERK 1 2) (MIAPaCa-2): −6.88% | Avg (ERK 1 2 T202 Y204) (MIAPaCa-2): 199.59% | Avg (MAK1 S360) (MIAPaCa-2): −5.25% | Avg (Mcl1) (MIAPaCa-2): −1.79% | Avg (Raptor S792) (MIAPaCa-2): 2.18% | Avg (Raptor) (MIAPaCa-2): 22.43% | Avg (Rictor) (MIAPaCa-2): −11.25% | Avg (Stat1) (MIAPaCa-2): 7.4% | Avg (Stat3) (MIAPaCa-2): −9.44% | Avg (bad S112) (MIAPaCa-2): −10.08% | Avg (c Fos) (MIAPaCa-2): −16.12% | Avg (c Myc) (MIAPaCa-2): −7.84% | Avg (mTOR S2448) (MIAPaCa-2): 11.84% | Avg (mTOR S2481) (MIAPaCa-2): 3.65% | Avg (mTOR) (MIAPaCa-2): −9.8% | Avg (p70 S6 Kinase) (MIAPaCa-2): −3.25% | Avg (p90 RSK S380) (MIAPaCa-2): −39.09% | Avg(S6 Ribo Prot S235 236) (MIAPaCa-2): −67.9% | Avg(S6 Ribo Prot S240 244) (MIAPaCa-2): −75.59% | Avg(Tuberin TSC2 Y1571) (MIAPaCa-2): 5.71% | Avg(p70 S6 Kinase S371 S394) (MIAPaCa-2): −14.4% | Avg(p70 S6 Kinase T389 T412) (MIAPaCa-2): −40.99%
